One data set relates to bloodstream T. brucei. Kind of data set: T. brucei stem-loop RNAi knock-down lines, drug sensitivity. The class given is cell-based, Trypanosoma brucei. Conditions: for EC50: Trypanosoma brucei. The protocol: f. T. brucei RNAi constructs and cell lines
PCR primers (Table S6) were designed using RNAit28 to generate a 500-bp fragment conferring specific knockdown to Tb927.8.6620 (Table S7) and a 543-bp fragment of Tb927.9.15260 PCR fragments were cloned in the pRPaSLi construct for the generation of stem-loop dsRNA under the control of tetracycline as the trigger for RNAi28,29. Constructs were digested with AscI, EtOH-precipitated, and resuspended ([…]) in sterile water. 2T1 strains, containing a tetracycline repressor, were electroporated using program X-001 of the Nucleofector II electroporator (Amaxa, Cologne, Germany)30 following the addition of 5 µg of linearized DNA mixed in 100 µL of cytomix31. Transformants were cloned by limiting dilution under phleomycin (1 µg/mL) and hygromycin (2.5 µg/mL) selection. Puromycin susceptibility (1 µg/mL) was tested for full integration of the construct and expression of stem-loop RNAi was induced with concentrations of tetracycline ranging from […].
T. brucei RNA was isolated using an RNeasy purification kit (Qiagen) and cDNA-synthesized using a high capacity RNA-to-cDNA kit (Applied Biosystems). PCR primers (Table S6) were designed using the Premierbiosoft's Beacon Designer 6. qRT-PCRs […]
knock-down bloodstream trypanosomes. Transcript levels in trypanosomes where RNAi was induced by the addition of tetracycline (1 µg/mL, 24 h) were compared to wild-type (uninduced) levels. Relative levels of cDNA were normalized using the reference gene TERT (Tb927.11.10190, telomerase reverse transcriptase).
Compound 7, nM Compound 7, nM
Figure S4. Dose-response curves for compound 7 against cell lines where […]
(open circles) and induced (closed circles), respectively. […]
and 8.7 ± 0.3 nM for Tb927.8.6620RNAi uninduced (open circles) and induced (closed circles), respectively. Results are the means standard deviations of data from three […]

Data set [1] is described as follows: 7 day oral repeat-dose rat toxicology and toxicokinetics. The settings on record: for tolerability: male rats, oral. On the procedure:
b. 7 day rat toxicology studies
A 7 day oral repeat-dose study in male rats was conducted to determine the toxicity […]
Groups of male rats (4/group toxicity; 3/group […]
up to 7 days by oral gavage. […]

Data set [2] concerns L. donovani proteasome β subunits. Kind of data set: Activity-based probe (UbiQ-018) labelling of L. donovani proteasome. It is filed as binding, Leishmania donovani. The settings on record: 100 µM. On the procedure: m. Activity-Based Probe Labelling of THP1 and L. donovani proteasome
Proteasome enriched fractions from THP1 (20 µg), L. donovani (10 µg) and L. donovani […]
µM for 1 h. Proteasome enriched fractions were also incubated with DMSO as control.
For all proteasome labelling experiments, the active-site probe Me4BodipyFL-Ahx3Leu3VS (UbiQ-018) was used at final concentration of 500 nM in sucrose buffer (50 mM Tris buffer pH 7.5, 5 mM magnesium chloride, 1 mM EDTA, 50 mM NaCl, 250 mM sucrose, 2 mM ATP, 1 mM DTT). Proteasome enriched fractions treated with […]
DMSO or test compounds, were incubated with the probe for 2h at RT. Samples were then denatured by addition of Laemmli sample buffer, heated to 95°C for 10 min and separated by electrophoresis on a 15% SDS-PAGE acrylamide gel. Following separation, gels were scanned in the fluorescein channel of a ChemiDoc reader (λ excitation/emission = 480/530 nm). Fluorescent proteins were excised and MALDI– TOF analysis carried out by the FingerPrints Proteomics service at the University of […]
10. Measuring Proteolytic activity of Leishmania tarentolae Proteasome […]
pre-prepared as a 10 mM stocks in 100 % DMSO and then diluted 1 in 3, over 11 points, prior to dispense of 100 nl of each dilution series into black, low volume, 384-well microplates. Proteasome was prepared as a 0.5 µg/mL working solution in assay buffer (50 mM HEPES (pH 7.5), 150 mM NaCl, 5 mM MgCl2, 5% glycerol, 1 mM CHAPS) and 5 µL was added using a Multidrop Micro (Thermo Fisher Scientific) to all wells containing compound dilutions on the test microplates. The microplates were then centrifuged for 1 min at 1000 rpm and incubated for 15 mins at 25 °C, prior to an assay initiating addition of 5 µl of fluorogenic substrate, which had been prepared as a 1 µM […]
The assay microplates were then centrifuged for 10 secs before using a Tecan M1000 Pro to monitor the increase of fluorescent intensity at 25 °C by excitation of the liberated Rhodamine110 at 485 nm and emission at 535 nm every 125 secs for 20 cycles. […]
calculate initial rates of reactions for all assay wells on the microplate by fitting to a linear regression model. The initial rates of reaction for all compound concentrations tested were normalised to the initial rates determined for 16 replicate control wells per microplate of both uninhibited reaction and no-proteasome background, and subsequently, IC50 values were determined by fitting the normalised data to the following four-parameter logistic model; y = a + (( b – a) / ( 1 + ( 10 ^ x / 10 ^ c ) ^ d ), where ‘a’ is the minimum, ‘b’ is […], ‘c’ is the IC50 and ‘d’ is […].
11. Cryo-EM of 20S Leishmania tarentolae proteasome a. Purification of 20S Leishmania tarentolae proteasome. […]

The structures appear in SMILES notation. Entries after “also recorded” stand apart in the source; their conditions may differ.

What is called EC50 is the concentration at which the effect is half-maximal.

For `O=C(Nc1ccc(F)c(-c2cn3nc(-c4ccccc4)cnc3n2)c1)N1CCCC1` [Compound 7], the EC50 in the data set with bloodstream T. brucei (Tb927.8.6620 RNAi induced) is 8.7 ± 0.3 nM; in the data set on bloodstream T. brucei (Tb927.8.6620 RNAi uninduced) it was 4.2 ± 0.2 nM; in the data set on bloodstream T. brucei (Tb927.9.15260 RNAi induced), 8 ± 0.4 nM; in the data set on bloodstream T. brucei (Tb927.9.15260 RNAi uninduced) it was 4.1 ± 0.2 nM. The “resistance conferred by RNAi knockdown” value in the data set with bloodstream T. brucei (knockdown of Tb927.9.15260 and Tb927.8.6620) is reported as “approximately twofold”.
Turning to `O=C(Nc1ccc(F)c(-c2ccn3c(N4CCOCC4)cnc3n2)c1)N1CCCC1` [Compound 8], the “margin to the predicted human blood AUC0-24” value in data set [1] (300 mg/kg/day) is listed as 37 fold. For the same compound, the tolerability entry was “not tolerated” in data set [1] (1000 mg/kg/day); “tolerated over the 7 days” in data set [1] (100 and 300 mg/kg/day, 7 days). Besides, the “rat 7-d toxicology study outcome” value in data set [1] (doses up to 300 mg/kg) was “no significant safety or tolerability liabilities were detected”. Further, in data set [1] (male, rat, in vivo, 300 mg/kg, 7 days), the safety margin entry is listed as “at least 37 fold”. The results for the “UbiQ-018 labelling of proteasome subunits” value in data set [2] (L. donovani WT extracts) and in data set [2] (L. donovani-resistant RES II extracts) were “selectively blocks labeling of β5; also recorded: selectively blocked UbiQ-018 labeling of the β5 subunit” and “could not be abolished”, respectively.

These data come from publication PMC6511062, “Preclinical candidate for the treatment of visceral leishmaniasis that acts through proteasome inhibition” (Proceedings of the National Academy of Sciences of the …, 2019).
